# Measurements: patent US9567358B2, “Methods of treatment using N-(3-fluorophenyl)-2-{3-[(7-{3-[ethyl(2-hydroxyethyl)amino]propoxy}-quinazolin-4-yl)amino]-1H-pyrazol-5-yl}acetamide” (AstraZeneca AB, priority 2002, dated 2017)
# Experiments:
# Aurora-A = molecular target: T1, Aurora-A (Homo sapiens, UniProt O14965); experiment: In vitro Aurora-A kinase inhibition test; format: biochemical
# T1 construct: 6 histidine tag with spacer region and rTEV protease cleavage site (pFastBac HTc) (N); made in house; host or cells: Spodoptera frugiperda Sf21 insect cells (baculovirus)
# T1 sequence (O14965 1-403): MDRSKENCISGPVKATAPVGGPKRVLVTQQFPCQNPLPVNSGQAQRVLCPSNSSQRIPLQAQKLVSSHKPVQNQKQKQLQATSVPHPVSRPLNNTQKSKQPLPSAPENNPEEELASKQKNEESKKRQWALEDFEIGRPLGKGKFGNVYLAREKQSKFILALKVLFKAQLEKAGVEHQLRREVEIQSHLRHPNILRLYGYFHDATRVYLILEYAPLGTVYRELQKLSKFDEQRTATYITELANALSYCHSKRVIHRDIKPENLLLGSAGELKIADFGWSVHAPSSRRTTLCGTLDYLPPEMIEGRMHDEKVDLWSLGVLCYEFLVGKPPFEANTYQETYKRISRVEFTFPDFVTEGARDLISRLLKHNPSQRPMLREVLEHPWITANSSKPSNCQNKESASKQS
# [1] = tested on: human tumour cell line SW620; experiment: In vitro cell proliferation assay (BrdU incorporation); format: cell-based; details: SW-620, SW620 cells, 48 hours with compound, 2 hour BrdU labelling, read-out: active at (concentration giving 50% inhibition of BrdU incorporation)
# Source text: (c) In Vitro Cell Proliferation Assay
# This and other assays can be used to determine the ability of a test compound to inhibit the growth of adherent mammalian cell lines, for example the human tumour cell line SW620 (ATCC CCL-227). This assay determines the ability of at test compound to inhibit the incorporation of the thymidine analogue, 5′-bromo-2′-deoxy-uridine (BrdU) into cellular DNA. SW620 or other adherent cells were typically seeded at 1×10^5 cells per well in L-15 media (GIBCO) plus 5% foetal calf serum, 1% L-glutamine (100 μl/well) in 96 well tissue culture treated 96 well plates (Costar) and allowed to adhere overnight. […] The optical density of the wells was then determined at 690 nm wavelength using a Titertek Multiscan plate reader. […]
# Aurora-B = molecular target: T2, Aurora-B (Homo sapiens, UniProt Q96GD4); experiment: In vitro Aurora-B kinase inhibition test; format: biochemical; details: recombinant Aurora-B, 33P-ATP peptide substrate filter assay, 60 minutes, room temperature; read-out: concentration giving 50% inhibition of enzyme activity
# T2 construct: 6-histidine tag; made in house; host or cells: Spodoptera frugiperda Sf21 insect cells (baculovirus)
# Source text: (b) In Vitro Aurora-B Kinase Inhibition Test
# This assay determines the ability of a test compound to inhibit serine-threonine kinase activity. DNA encoding Aurora-B may be obtained by total gene synthesis or by cloning. This DNA may then be expressed in a suitable expression system to obtain polypeptide with serine-threonine kinase activity. In the case of Aurora-B, the coding sequence was isolated from cDNA by polymerase chain reaction (PCR) and cloned into the pFastBac system in a manner similar to that described above for Aurora-A (i.e. to direct expression of a 6-histidine tagged Aurora-B protein).
# For the large scale expression of Aurora-B kinase activity, Sf21 insect cells were grown at 28° C. in TC100 medium supplemented with 10% foetal calf serum (Viralex) and 0.2% F68 Pluronic (Sigma) on a Wheaton roller rig at 3 r.p.m. When the cell density reached 1.2×10^6 cells ml^−1 they were infected with plaque-pure Aurora-B recombinant virus at a multiplicity of infection of 1 and harvested 48 hours later. All subsequent purification steps were performed at 4° C. […]
# T2 sequence (Q96GD4 whole entry): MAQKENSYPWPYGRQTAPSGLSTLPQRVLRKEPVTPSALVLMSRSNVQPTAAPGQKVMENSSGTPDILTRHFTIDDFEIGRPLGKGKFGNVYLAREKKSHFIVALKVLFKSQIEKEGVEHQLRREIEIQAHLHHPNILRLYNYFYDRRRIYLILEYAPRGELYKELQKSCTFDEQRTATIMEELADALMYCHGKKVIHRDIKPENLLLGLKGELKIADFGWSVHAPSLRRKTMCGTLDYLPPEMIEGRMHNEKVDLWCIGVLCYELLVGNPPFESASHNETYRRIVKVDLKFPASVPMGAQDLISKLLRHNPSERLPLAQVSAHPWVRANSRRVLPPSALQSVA
structure (smiles),measurement,setting,value
"COc1cc2c(Nc3cc(CC(=O)Nc4cccc(F)c4)[nH]n3)ncnc2cc1OCCCN1CCC[C@H]1COP(=O)(O)O [Compound 5, {(2S)-1-[3-({4-[(5-{2-[(3-fluorophenyl)amino]-2-oxoethyl}-1H-pyrazol-3-yl)amino]-6-methoxyquinazolin-7-yl}oxy)propyl]pyrrolidin-2-yl}methyl dihydrogen phosphate]",IC50,Aurora-A,5.5 nM
same,IC50,[1],0.1 nM
same,IC50,Aurora-B,1.6 nM
